# Results reported in patent publication US20240228490A1, “HETEROCYCLIC DERIVATIVE INHIBITOR AND PREPARATION METHOD THEREFOR AND APPLICATION THEREOF” (Shanghai Hansoh Biomedical Co., Ltd., priority 2021, published 2024).
# Molecular target: PARP1 enzyme (Homo sapiens (Human), UniProt P09874)
# Assay: Inhibitory activity on PARP1 enzyme (chemiluminescence)
# Type: biochemical
# Description: The inhibitory activity of the compounds on PARP1 enzyme was determined by the chemiluminescence method in the experiment. The experiment was carried out in a 384-well plate. Coating histones in a 384-well plate: 5×histone solution was diluted 5 folds with PBS, added to a 384-well ELISA plate (25 μL per well), and incubated at 4° C. overnight. […] A mixture of PARP reaction biotin-labeled substrate, activated DNA, 10×PARP buffer and water was added (12.5 μL per well). Compound solutions with different concentrations were formulated using the experimental buffer (10% DMSO aqueous solution containing 1.25 mM DTT). The final detection concentration started from 100 nM, with 3-fold dilution and 8 concentrations. The compound solutions were added to the reaction wells of the 384-well plate (2.5 μL per well). 2.5 μL of 10% DMSO aqueous solution containing 1.25 mM DTT was added to the positive control well and blank well (2.5 μL per well). […] The plate was centrifuged at 1000 rpm for 1 minute, and reacted at room temperature for 60 minutes. […] Streptavidin-HRP solution diluted 50 folds with Blocking buffer 3 was added (25 μL per well), and the plate was incubated at room temperature for 30 minutes. […] The luminescence reaction solution obtained by mixing ECL substrate A and ELISA ECL substrate B (1:1) was added (50 μL per well) for reaction. The chemiluminescence values were measured immediately with a BioTek Synergy H1 or Envision instrument.
# The chemiluminescence values were measured with a BioTek Synergy H1 or Envision instrument. The inhibition rate was calculated, and the concentration and inhibition rate were fitted to a nonlinear regression curve using Graphpad Prism software to obtain the IC50 value.
# Chain of PARP1 enzyme (P09874 whole entry): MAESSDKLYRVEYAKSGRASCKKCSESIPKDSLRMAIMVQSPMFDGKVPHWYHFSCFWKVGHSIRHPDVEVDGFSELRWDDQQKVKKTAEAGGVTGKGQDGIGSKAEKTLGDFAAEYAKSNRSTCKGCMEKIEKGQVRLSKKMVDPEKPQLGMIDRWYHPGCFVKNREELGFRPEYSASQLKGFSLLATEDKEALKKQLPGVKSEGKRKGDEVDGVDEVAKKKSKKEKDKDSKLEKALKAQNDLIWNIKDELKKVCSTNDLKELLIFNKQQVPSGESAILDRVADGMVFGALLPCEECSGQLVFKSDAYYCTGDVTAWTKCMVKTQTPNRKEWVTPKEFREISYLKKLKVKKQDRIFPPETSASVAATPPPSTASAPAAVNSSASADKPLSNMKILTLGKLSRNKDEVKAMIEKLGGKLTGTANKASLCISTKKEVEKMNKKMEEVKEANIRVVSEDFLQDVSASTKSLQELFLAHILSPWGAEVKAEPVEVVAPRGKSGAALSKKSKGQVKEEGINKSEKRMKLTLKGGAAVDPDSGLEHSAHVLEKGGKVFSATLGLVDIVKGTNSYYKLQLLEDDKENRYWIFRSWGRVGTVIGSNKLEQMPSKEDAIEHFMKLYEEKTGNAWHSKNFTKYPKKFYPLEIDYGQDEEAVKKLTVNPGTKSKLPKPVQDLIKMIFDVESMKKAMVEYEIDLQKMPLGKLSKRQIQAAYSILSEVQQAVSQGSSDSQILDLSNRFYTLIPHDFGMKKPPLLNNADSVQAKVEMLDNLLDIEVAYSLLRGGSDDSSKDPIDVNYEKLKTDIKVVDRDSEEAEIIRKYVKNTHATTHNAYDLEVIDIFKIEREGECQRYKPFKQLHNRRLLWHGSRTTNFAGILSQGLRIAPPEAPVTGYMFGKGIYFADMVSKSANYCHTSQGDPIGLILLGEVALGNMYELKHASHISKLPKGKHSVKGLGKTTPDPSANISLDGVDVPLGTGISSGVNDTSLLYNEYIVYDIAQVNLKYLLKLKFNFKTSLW
row,SMILES,IC50 [nM]
1,"CCc1cc2ncc(CN3CCN(c4ccc5c(c4)CN(C)C5=O)CC3)cc2[nH]c1=O [Example 6, 3-Ethyl-7-((4-(2-methyl-1-oxoisoindolin-5-yl)piperazin-1-yl)methyl)-1,5-naphthyridin-2(1H)-one]",2.9
2,"CCc1cc2ncc(CN3CCN(c4ccc5c(c4)CNC5=O)CC3)cc2[nH]c1=O [Example 17, 3-Ethyl-7-((4-(1-oxoisoindolin-5-yl)piperazin-1-yl)methyl)-1,5-naphthyridin-2(1H)-one]",4.5
3,"CCc1cc2ncc(CN3CCN(c4cnc5[nH]ccc5c4)CC3)cc2[nH]c1=O [Example 23, 7-((4-(1H-Pyrrolo[2,3-b]pyridin-5-yl)piperazin-1-yl)methyl)-3-ethyl-1,5-naphthyridin-2(1H)-one]",3.3
4,"CCc1cc2ncc(CN3CCN(c4ccc5nc(C)[nH]c5c4)CC3)cc2[nH]c1=O [Example 24, 3-Ethyl-7-((4-(2-methyl-1H-benzo[d]imidazol-6-yl)piperazin-1-yl)methyl)-1,5-naphthyridin-2(1H)-one]",1.7
5,"CCc1cc2ncc(CN3CC=C(c4ccc(C(=O)N[C@H]5CCOC5)nc4)CC3)cc2[nH]c1=O [Example 31, (S)-1′-((7-Ethyl-6-oxo-5,6-dihydro-1,5-naphthyridin-3-yl)methyl)-N-(tetrahydrofuran-3-yl)-1′,2′,3′,6′-tetrahydro-[3,4′-bipyridine]-6-carboxamide]",1
6,"CCc1cc2ncc(CN3CC=C(c4ccc(C(=O)N[C@@H]5CCOC5)nc4)CC3)cc2[nH]c1=O [Example 32, (R)-1′-((7-Ethyl-6-oxo-5,6-dihydro-1,5-naphthyridin-3-yl)methyl)-N-(tetrahydrofuran-3-yl)-1′,2′,3′,6′-tetrahydro-[3,4′-bipyridine]-6-carboxamide]",1
7,"CCc1cc2ncc(CN3CC=C(c4ccc(C(=O)NC)c(F)c4)CC3)cc2[nH]c1=O [Example 33, 4-(1-((7-Ethyl-6-oxo-5,6-dihydro-1,5-naphthyridin-3-yl)methyl)-1,2,3,6-tetrahydropyridin-4-yl)-2-fluoro-N-methylbenzamide]",0.91
8,"CCc1cc2ncc(CN3CC=C(c4ccc(C(=O)NC)nc4OC)CC3)cc2[nH]c1=O [Example 34, 1′-((7-Ethyl-6-oxo-5,6-dihydro-1,5-naphthyridin-3-yl)methyl)-2-methoxy-N-methyl-1′,2′,3′,6′-tetrahydro-[3,4′-bipyridine]-6-carboxamide]",1.6
9,"CCc1cc2ncc(CN3CC=C(c4ccc(C(=O)NC#N)nc4)CC3)cc2[nH]c1=O [Example 57, N-Cyano-1′-((7-ethyl-6-oxo-5,6-dihydro-1,5-naphthyridin-3-yl)methyl)-1′,2′,3′,6′-tetrahydro-[3,4′-bipyridine]-6-carboxamide]",2.8
10,"CCc1cc2ncc(CN3CC=C(c4ccc(C(=O)NC)c(F)c4Cl)CC3)cc2[nH]c1=O [Example 65, 3-Chloro-4-(1-((7-ethyl-6-oxo-5,6-dihydro-1,5-naphthyridin-3-yl)methyl)-1,2,3,6-tetrahydropyridin-4-yl)-2-fluoro-N-methylbenzamide]",2.2
11,"CCc1cc2ncc(CN3CC=C(c4ccc(C(=O)NC)c(F)c4C)CC3)cc2[nH]c1=O [Example 66, 4-(1-((7-Ethyl-6-oxo-5,6-dihydro-1,5-naphthyridin-3-yl)methyl)-1,2,3,6-tetrahydropyridin-4-yl)-2-fluoro-N,3-dimethylbenzamide]",1.7
12,"CCc1cc2ncc(CN3CC=C(c4ccc(C(=O)NC)c(F)c4F)CC3)cc2[nH]c1=O [Example 67, 4-(1-((7-Ethyl-6-oxo-5,6-dihydro-1,5-naphthyridin-3-yl)methyl)-1,2,3,6-tetrahydropyridin-4-yl)-2,3-difluoro-N-methylbenzamide]",2.1
13,"CCc1cc2ncc(CN3CCN(c4ccc5c(c4)C(=O)N(C)C5=O)CC3)cc2[nH]c1=O [Example 79, 5-(4-((7-Ethyl-6-oxo-5,6-dihydro-1,5-naphthyridin-3-yl)methyl)piperazin-1-yl)-2-methylisoindoline-1,3-dione]",3.3
14,"CCc1cc2ncc(CN3CCN(c4ccc5c(C(=O)NC)ncn5c4)CC3)cc2[nH]c1=O [Example 80, 6-(4-((7-Ethyl-6-oxo-5,6-dihydro-1,5-naphthyridin-3-yl)methyl)piperazin-1-yl)-N-methylimidazo[1,5-a]pyridine-1-carboxamide]",5
15,"CCC1Oc2ncc(CN3CC=C(c4ccc(C(=O)NC)nc4Cl)CC3)cc2NC1=O (centres unmarked) [Example 85, 2-Chloro-1′-((3-ethyl-2-oxo-2,3-dihydro-1H-pyrido[2,3-b][1,4]oxazin-7-yl)methyl)-N-methyl-1′,2′,3′,6′-tetrahydro-[3,4′-bipyridine]-6-carboxamide]",3.5
16,"CCC1Oc2ncc(CN3CC=C(c4ccc(C(=O)NC)nc4C)CC3)cc2NC1=O (centres unmarked) [Example 86, 1′-((3-Ethyl-2-oxo-2,3-dihydro-1H-pyrido[2,3-b][1,4]oxazin-7-yl)methyl)-N,2-dimethyl-1′,2′,3′,6′-tetrahydro-[3,4′-bipyridine]-6-carboxamide]",5.1
17,"CCC1Oc2ccc(CN3CC=C(c4ccc(C(=O)NC)nc4Cl)CC3)cc2NC1=O (centres unmarked) [Example 87, 2-Chloro-1′-((2-ethyl-3-oxo-3,4-dihydro-2H-benzo[b][1,4]oxazin-6-yl)methyl)-N-methyl-1′,2′,3′,6′-tetrahydro-[3,4′-bipyridine]-6-carboxamide]",4.9
18,"CCC1Oc2ccc(CN3CC=C(c4ccc(C(=O)NC)nc4C)CC3)cc2NC1=O (centres unmarked) [Example 88, 1′-((2-Ethyl-3-oxo-3,4-dihydro-2H-benzo[b][1,4]oxazin-6-yl)methyl)-N,2-dimethyl-1′,2′,3′,6′-tetrahydro-[3,4′-bipyridine]-6-carboxamide]",5
19,"CCC1Oc2ncc(CN3CC=C(c4ccc(C(=O)NC)nc4F)CC3)cc2NC1=O (centres unmarked) [Example 90, 1′-((3-Ethyl-2-oxo-2,3-dihydro-1H-pyrido[2,3-b][1,4]oxazin-7-yl)methyl)-2-fluoro-N-methyl-1′,2′,3′,6′-tetrahydro-[3,4′-bipyridine]-6-carboxamide]",2.7
20,"CCn1c(=O)[nH]c2cc(CN3CC=C(c4ccc(C(=O)NC)nc4F)CC3)ccc2c1=O [Example 91, 1′-((3-Ethyl-2,4-dioxo-1,2,3,4-tetrahydroquinazolin-7-yl)methyl)-2-fluoro-N-methyl-1′,2′,3′,6′-tetrahydro-[3,4′-bipyridine]-6-carboxamide]",3
